Source: PMC8976073 (Nature Communications, 2022)
Where a chain is given by its changes, count along the chain named.

Key:
FPR2 [1] = biological target: T1, FPR2 (Homo sapiens, UniProt P25090, E89A); test: Competition binding: inhibition of WK(FITC)YMVm binding to FPR2 (wild type and mutants), HEK293F cells; conditions: FPR2 E89A, mean ± SEM
T1 construct: expressed in transfected cells; host or cells: HEK293F cells, pTT5 vector
T1 sequence (P25090 1-351 E89A): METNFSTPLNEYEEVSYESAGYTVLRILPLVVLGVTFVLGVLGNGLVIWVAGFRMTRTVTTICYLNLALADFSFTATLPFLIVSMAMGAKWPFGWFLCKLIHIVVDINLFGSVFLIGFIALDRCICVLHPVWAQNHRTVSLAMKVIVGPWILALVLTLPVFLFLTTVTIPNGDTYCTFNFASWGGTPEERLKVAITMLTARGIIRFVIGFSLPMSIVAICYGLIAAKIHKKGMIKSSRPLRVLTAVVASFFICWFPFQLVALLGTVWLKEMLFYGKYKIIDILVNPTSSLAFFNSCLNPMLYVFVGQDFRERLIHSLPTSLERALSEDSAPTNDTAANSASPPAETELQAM
Method: (§1) The genes of wild-type FPR1 and FPR2 and mutants with a Flag tag at the N termini were cloned into pTT5 vector (Invitrogen) and expressed in HEK293F cells (Invitrogen). Cells were harvested 48 h post transfection with 1 μg ml^−1 plasmid. Cell-surface expression of the receptors was measured by mixing 10 μl cells with 15 μl of TBS buffer supplemented with 4% BSA, 20% (v/v) viability-staining solution 7-AAD (Invitrogen, Cat#00-6993-50), and 0.1% (v/v) anti-FLAG M2-FITC antibody (Sigma, Cat#F4049) at 4 °C for 20 min. After incubation, 175 μl of TBS buffer was added and the fluorescent signal was measured using a flow-cytometry reader (Guava easyCyte HT, Millipore). Then, the cells were washed and resuspended to a final concentration of 1 × 10^6 cells per ml in Hanks’ Balanced Salt Solution (HBSS) buffer supplemented with 0.5% bovine serum albumin (BSA) and 20 mM HEPES, pH 7.4.
(§2) The mean fluorescent intensity of each well was then read by the FCM reader. Total binding and nonspecific binding were measured in the absence and presence of the unlabeled ligand (200 μM WKYMVm), respectively. […] Mean fluorescent-intensity values were measured by flow cytometry. Data were analyzed using Prism 8.0 (GraphPad software).

FPR2 [2] = biological target: T2, FPR2 (Homo sapiens, UniProt P25090, S211L); test: as above; conditions: FPR2 Construct 2, mean ± SEM
T2 construct: expressed in transfected cells; host or cells: HEK293F cells, pTT5 vector
T2 sequence (P25090 with tags, fused parts or gaps S211L): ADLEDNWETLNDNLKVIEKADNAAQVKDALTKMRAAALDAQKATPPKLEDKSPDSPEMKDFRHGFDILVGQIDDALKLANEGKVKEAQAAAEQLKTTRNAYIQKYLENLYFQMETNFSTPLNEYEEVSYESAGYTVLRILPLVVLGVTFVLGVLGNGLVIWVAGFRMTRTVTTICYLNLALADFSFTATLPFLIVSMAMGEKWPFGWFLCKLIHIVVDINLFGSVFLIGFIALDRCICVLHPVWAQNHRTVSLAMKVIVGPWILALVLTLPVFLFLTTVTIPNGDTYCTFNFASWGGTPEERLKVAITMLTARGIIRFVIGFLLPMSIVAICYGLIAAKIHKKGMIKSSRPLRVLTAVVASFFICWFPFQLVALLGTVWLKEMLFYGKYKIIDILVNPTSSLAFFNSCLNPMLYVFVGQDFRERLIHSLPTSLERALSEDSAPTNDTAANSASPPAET
Method: as §1, §2

FPR2 [3] = biological target: T3, FPR2 (Homo sapiens, UniProt P25090, E89G); test: as above; conditions: FPR2 E89G, mean ± SEM
T3 construct: expressed in transfected cells; host or cells: HEK293F cells, pTT5 vector
T3 sequence (P25090 1-351 E89G): T1 sequence (P25090 1-351 E89A) with A89G
Method: as §1, §2

FPR2 [4] = biological target: T4, FPR2 (Homo sapiens, UniProt P25090); test: Inositol-phosphate (IP) accumulation assay, FPR2 (wild type and mutants) with chimeric GαΔ6qi4myr in HEK293F cells; type: cell-based; conditions: FPR2 WT; mean ± SEM; SEM
T4 construct: expressed in transfected cells; host or cells: HEK293F cells, pTT5 vector, co-transfected with GαΔ6qi4myr (1:2 w/w)
T4 sequence (P25090 1-351): T1 sequence (P25090 1-351 E89A) with A89E
Method: (§3) Flag-tagged wild-type FPR1 and FPR2 and mutants were cloned into the pTT5 vector and expressed in HEK293F cells. Cells were cotransfected with the plasmids of receptor and a chimeric Gα protein GαΔ6qi4myr, which redirects the Gαi signaling pathway to the Gαq phospholipase-C pathway, at a ratio of 1:2 (w/w), and were harvested 48 h post transfection. The cell-surface expression was measured as described above.
(§4) The IP-One Gq assay kit (Cisbio Bioassays, 62IPAPEB) was used to measure the peptide agonist-induced IP production. […] Then, the cells were supplemented with 3 μl cryptate-labeled anti-IP1 monoclonal antibody (1:20 diluted in lysis and detection buffer) and 3 μl d2-labeled IP1, and incubated at room temperature for another 1 h. […] The accumulation of IP1, EC50, and pEC50 were calculated using nonlinear regression (curve fit) according to a standard dose–response curve in GraphPad Prism 8.0 (GraphPad software).

FPR2 [5] = biological target: T5, FPR2 (Homo sapiens, UniProt P25090, F110A); test: as above; type: cell-based; conditions: FPR2 F110A
T5 construct: expressed in transfected cells; host or cells: HEK293F cells, pTT5 vector, co-transfected with GαΔ6qi4myr (1:2 w/w)
T5 sequence (P25090 1-351 F110A): T1 sequence (P25090 1-351 E89A) with A89E, F110A
Method: as §3, §4

A Ki (FPR2 [1]) of 2240 nM, a Ki (FPR2 [2]) of 525 nM and a Ki (FPR2 [3]) of 575 nM were found for `CC[C@H](C)[C@H](NC(=O)[C@H](CCC(=O)O)NC(=O)[C@H](CO)NC(=O)[C@@H](NC(=O)[C@H](CC(C)C)NC(=O)[C@H](CC(C)C)NC(=O)[C@H](CC(C)C)NC(=O)[C@H](CC(C)C)NC(=O)[C@H](CS)NC(=O)[C@H](CO)NC(=O)[C@H](Cc1ccccc1)NC(=O)CNC(=O)[C@H](CCCNC(=N)N)NC(=O)[C@@H]1CCCN1C(=O)[C@H](C)NC(=O)[C@H](CCSC)NC=O)[C@@H](C)O)C(=O)N[C@@H](CC(=O)O)C(=O)N[C@@H](CC(C)C)C(=O)N1CCC[C@H]1C(=O)N[C@H](C(=O)N[C@@H](CCCCN)C(=O)N[C@@H](CCCNC(=N)N)C(=O)N[C@@H](CCCNC(=N)N)C(=O)N[C@@H](C)C(=O)O)C(C)C` [fHN, N-formyl humanin] in this work. For the same compound, the EC50 (FPR2 [4]) was 126 nM and the EC50 (FPR2 [5]) was 110 nM.
